How the values were obtained:
Assay in all cases: DiscoverX KinomeScreen competition binding assay (kinase selectivity panel)
[1] = target: T1, panel of ninety-seven kinases (Homo sapiens, UniProt O00750); conditions: PIK3C2B; screened at 3000 nM
T1 construct: purchased DiscoverX; host or cells: E. coli (BL21-derived, T7 phage display) or HEK-293
Experimental: (§1) This has been investigated by testing atropisomer A-2 for off-target activity against a panel of ninety-seven kinases distributed across the kinome at a concentration of 3 μM using the DiscoverX KinomeScreen assay. The DiscoverX KinomeScreen assay is a site-directed competition binding assay which measures the binding affinity of a compound to a kinase, by use of a solid supported control compound which can bind or capture the kinases in solution. In the absence of a kinase-inhibitor test compound, all of the kinase will bind to the solid support. If a kinase-inhibitor test compound is added to the assay mix, the amount of kinase binding to the solid support will be reduced, the extent of reduction being dependent on the potency of the test compound as a kinase inhibitor. […] For most assays, kinase-tagged T7 phage strains were grown in parallel in 24-well blocks in an E. coli host derived from the BL21 strain. E. coli were grown to log-phase and infected with T7 phage from a frozen stock (multiplicity of infection=0.4) and incubated with shaking at 32° C. until lysis (90-150 minutes). The lysates were centrifuged (6,000×g) and filtered (0.2 μm) to remove cell debris. The remaining kinases were produced in HEK-293 cells and subsequently tagged with DNA for qPCR detection. Streptavidin-coated magnetic beads were treated with biotinylated small molecule ligands for 30 minutes at room temperature to generate affinity resins for kinase assays. The liganded beads were blocked with excess biotin and washed with blocking buffer (SeaBlock (Pierce), 1% BSA, 0.05% Tween 20, 1 mM DTT) to remove unbound ligand and to reduce non-specific phage binding. […] Test compounds were prepared as 40× stocks in 100% DMSO and directly diluted into the assay. All reactions were performed in polypropylene 384-well plates in a final volume of 0.02 ml. […] The beads were then re-suspended in elution buffer (1×PBS, 0.05% Tween 20, 0.5 μM non-biotinylated affinity ligand) and incubated at room temperature with shaking for 30 minutes. The kinase concentration in the eluates was measured by qPCR. Compounds that bind the kinase active site and directly (sterically) or indirectly (allosterically) prevent kinase binding to the immobilized ligand, will reduce the amount of kinase captured on the solid support. […] The strength of binding of the test molecule to the kinase can be expressed as the percent control (% Ctrl) The compound(s) were screened at 3000 nM concentration, and results for primary screen binding interactions are reported as ‘% Ctrl’, where lower numbers indicate stronger hits in the matrix on the following page(s). [formula] • negative control=DMSO (100% Ctrl) • positive control=control compound (0% Ctrl)

[2] = target: T2, panel of ninety-seven kinases (Homo sapiens, UniProt O60674); conditions: JAK2; screened at 3000 nM
T2 construct: purchased DiscoverX; host or cells: E. coli (BL21-derived, T7 phage display) or HEK-293
Experimental: as §1

[3] = target: T3, panel of ninety-seven kinases (Homo sapiens, UniProt O75116); conditions: ROCK2; screened at 3000 nM
T3 construct: purchased DiscoverX; host or cells: E. coli (BL21-derived, T7 phage display) or HEK-293
T3 sequence (O75116 whole entry): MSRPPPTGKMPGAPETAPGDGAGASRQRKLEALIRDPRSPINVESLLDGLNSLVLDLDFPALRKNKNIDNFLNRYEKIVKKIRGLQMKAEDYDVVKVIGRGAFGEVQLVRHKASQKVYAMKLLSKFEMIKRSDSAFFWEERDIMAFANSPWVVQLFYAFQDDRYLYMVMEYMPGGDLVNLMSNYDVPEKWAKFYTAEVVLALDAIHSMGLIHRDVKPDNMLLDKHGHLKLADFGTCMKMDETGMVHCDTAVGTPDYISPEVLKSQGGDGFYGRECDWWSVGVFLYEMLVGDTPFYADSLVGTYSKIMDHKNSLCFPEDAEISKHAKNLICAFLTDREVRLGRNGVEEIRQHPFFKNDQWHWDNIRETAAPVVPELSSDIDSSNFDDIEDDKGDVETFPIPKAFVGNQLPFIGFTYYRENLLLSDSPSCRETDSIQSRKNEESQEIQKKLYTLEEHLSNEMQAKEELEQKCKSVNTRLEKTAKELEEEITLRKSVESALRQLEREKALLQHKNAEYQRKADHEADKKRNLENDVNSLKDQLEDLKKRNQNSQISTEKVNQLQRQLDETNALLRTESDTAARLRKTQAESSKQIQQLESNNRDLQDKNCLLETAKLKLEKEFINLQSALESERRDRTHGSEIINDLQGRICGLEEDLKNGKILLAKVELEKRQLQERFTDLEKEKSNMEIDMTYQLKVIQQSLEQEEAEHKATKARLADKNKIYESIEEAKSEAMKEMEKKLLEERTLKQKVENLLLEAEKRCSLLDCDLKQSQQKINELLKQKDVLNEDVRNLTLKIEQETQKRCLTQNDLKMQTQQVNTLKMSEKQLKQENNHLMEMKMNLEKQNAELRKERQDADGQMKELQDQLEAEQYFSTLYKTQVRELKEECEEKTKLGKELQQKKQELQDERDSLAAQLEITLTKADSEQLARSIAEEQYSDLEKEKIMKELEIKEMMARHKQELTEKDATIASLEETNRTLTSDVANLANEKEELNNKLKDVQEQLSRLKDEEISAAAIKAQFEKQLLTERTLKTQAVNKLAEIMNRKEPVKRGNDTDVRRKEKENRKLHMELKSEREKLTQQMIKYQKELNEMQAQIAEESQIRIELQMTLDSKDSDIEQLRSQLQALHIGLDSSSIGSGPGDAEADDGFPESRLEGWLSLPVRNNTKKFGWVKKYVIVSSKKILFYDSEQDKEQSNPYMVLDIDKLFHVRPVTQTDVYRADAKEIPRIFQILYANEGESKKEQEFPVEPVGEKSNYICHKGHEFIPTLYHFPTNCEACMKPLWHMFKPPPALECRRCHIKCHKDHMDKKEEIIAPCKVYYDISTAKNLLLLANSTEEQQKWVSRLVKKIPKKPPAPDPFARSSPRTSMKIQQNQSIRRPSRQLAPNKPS
Experimental: as §1

[4] = target: T4, panel of ninety-seven kinases (Homo sapiens, UniProt P08069); conditions: IGF1R; screened at 3000 nM
T4 construct: purchased DiscoverX; host or cells: E. coli (BL21-derived, T7 phage display) or HEK-293
Experimental: as §1

[5] = target: T5, panel of ninety-seven kinases (Homo sapiens, UniProt P29597); conditions: TYK2; screened at 3000 nM
T5 construct: purchased DiscoverX; host or cells: E. coli (BL21-derived, T7 phage display) or HEK-293
Experimental: as §1

[6] = target: T6, panel of ninety-seven kinases (Homo sapiens, UniProt P30530); conditions: AXL; screened at 3000 nM
T6 construct: purchased DiscoverX; host or cells: E. coli (BL21-derived, T7 phage display) or HEK-293
Experimental: as §1

[7] = target: T7, panel of ninety-seven kinases (Homo sapiens, UniProt P36888); conditions: FLT3; screened at 3000 nM
T7 construct: purchased DiscoverX; host or cells: E. coli (BL21-derived, T7 phage display) or HEK-293
T7 sequence (P36888 27-993): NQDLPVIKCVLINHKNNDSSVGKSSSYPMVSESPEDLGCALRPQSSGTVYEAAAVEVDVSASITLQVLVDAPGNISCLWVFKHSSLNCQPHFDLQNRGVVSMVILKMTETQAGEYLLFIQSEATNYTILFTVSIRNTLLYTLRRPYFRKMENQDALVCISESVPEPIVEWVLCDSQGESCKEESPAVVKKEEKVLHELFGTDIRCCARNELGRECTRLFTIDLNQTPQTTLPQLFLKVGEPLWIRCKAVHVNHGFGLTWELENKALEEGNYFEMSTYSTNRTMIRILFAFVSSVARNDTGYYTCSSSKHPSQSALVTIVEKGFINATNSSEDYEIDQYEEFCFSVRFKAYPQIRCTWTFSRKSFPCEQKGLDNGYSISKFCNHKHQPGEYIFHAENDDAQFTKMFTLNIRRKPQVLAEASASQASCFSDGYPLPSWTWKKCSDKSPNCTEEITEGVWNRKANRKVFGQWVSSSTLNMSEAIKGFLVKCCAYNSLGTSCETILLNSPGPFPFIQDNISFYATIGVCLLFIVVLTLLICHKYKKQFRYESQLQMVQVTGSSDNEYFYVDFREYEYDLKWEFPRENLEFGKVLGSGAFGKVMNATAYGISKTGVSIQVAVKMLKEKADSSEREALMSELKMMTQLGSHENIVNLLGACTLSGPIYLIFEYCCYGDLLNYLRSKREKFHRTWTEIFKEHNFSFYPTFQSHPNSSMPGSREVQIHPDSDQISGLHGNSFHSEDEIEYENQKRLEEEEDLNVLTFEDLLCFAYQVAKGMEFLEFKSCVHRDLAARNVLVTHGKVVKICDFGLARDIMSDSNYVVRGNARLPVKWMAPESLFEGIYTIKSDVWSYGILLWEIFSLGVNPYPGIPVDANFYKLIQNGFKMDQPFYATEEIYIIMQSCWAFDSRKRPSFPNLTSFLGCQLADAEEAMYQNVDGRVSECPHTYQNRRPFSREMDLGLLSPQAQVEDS
Experimental: as §1

[8] = target: T8, panel of ninety-seven kinases (Homo sapiens, UniProt P36897); conditions: TGFBR1; screened at 3000 nM
T8 construct: purchased DiscoverX; host or cells: E. coli (BL21-derived, T7 phage display) or HEK-293
T8 sequence (P36897 34-503): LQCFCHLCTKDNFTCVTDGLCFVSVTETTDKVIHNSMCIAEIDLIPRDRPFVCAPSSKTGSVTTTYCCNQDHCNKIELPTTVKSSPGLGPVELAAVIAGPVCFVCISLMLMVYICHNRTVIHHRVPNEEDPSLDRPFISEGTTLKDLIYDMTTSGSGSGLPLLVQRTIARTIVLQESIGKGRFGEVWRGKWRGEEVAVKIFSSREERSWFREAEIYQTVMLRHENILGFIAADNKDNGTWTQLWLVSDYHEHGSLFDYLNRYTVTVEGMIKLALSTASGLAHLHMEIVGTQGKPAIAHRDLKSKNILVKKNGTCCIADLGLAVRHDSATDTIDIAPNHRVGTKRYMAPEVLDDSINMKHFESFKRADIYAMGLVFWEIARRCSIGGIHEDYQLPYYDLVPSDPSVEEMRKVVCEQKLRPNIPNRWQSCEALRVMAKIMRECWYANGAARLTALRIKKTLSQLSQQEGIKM
Experimental: as §1

[9] = target: T9, panel of ninety-seven kinases (Homo sapiens, UniProt P42336); conditions: PIK3CA; screened at 3000 nM
T9 construct: purchased DiscoverX; host or cells: E. coli (BL21-derived, T7 phage display) or HEK-293
Experimental: as §1

[10] = target: T10, panel of ninety-seven kinases (Homo sapiens, UniProt P43403); conditions: ZAP70; screened at 3000 nM
T10 construct: purchased DiscoverX; host or cells: E. coli (BL21-derived, T7 phage display) or HEK-293
T10 sequence (P43403 whole entry): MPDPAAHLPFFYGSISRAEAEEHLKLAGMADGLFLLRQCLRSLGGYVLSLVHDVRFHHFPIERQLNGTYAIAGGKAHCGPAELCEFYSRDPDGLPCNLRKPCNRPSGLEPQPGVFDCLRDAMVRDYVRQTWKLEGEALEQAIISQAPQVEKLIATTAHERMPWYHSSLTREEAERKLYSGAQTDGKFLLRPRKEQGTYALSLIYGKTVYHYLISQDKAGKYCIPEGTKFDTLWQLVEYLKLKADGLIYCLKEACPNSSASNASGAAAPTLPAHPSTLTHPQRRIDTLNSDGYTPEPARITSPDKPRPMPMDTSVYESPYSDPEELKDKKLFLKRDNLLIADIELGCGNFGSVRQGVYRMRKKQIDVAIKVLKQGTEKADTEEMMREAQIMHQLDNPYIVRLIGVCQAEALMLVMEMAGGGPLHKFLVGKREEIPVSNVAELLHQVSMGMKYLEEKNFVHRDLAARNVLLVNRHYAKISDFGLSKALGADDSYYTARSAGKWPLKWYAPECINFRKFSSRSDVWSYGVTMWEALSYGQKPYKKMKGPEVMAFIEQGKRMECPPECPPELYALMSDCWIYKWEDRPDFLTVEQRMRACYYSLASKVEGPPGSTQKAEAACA
Experimental: as §1

[11] = target: T11, panel of ninety-seven kinases (Homo sapiens, UniProt P45983); conditions: MAPK8; screened at 3000 nM
T11 construct: purchased DiscoverX; host or cells: E. coli (BL21-derived, T7 phage display) or HEK-293
T11 sequence (P45983 whole entry): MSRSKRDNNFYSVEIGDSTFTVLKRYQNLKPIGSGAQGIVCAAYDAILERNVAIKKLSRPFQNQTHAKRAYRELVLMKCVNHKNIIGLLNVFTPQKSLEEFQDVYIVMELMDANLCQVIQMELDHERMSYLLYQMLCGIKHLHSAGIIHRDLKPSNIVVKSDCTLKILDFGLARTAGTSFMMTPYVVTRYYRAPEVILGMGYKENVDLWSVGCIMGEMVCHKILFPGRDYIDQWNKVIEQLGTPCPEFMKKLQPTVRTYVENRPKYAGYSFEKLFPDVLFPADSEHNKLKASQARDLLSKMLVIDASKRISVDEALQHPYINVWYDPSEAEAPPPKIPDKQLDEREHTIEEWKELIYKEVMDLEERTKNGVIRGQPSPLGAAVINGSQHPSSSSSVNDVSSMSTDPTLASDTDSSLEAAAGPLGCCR
Experimental: as §1

[12] = target: T12, panel of ninety-seven kinases (Homo sapiens, UniProt P49841); conditions: GSK3B; screened at 3000 nM
T12 construct: purchased DiscoverX; host or cells: E. coli (BL21-derived, T7 phage display) or HEK-293
Experimental: as §1

[13] = target: T13, panel of ninety-seven kinases (Homo sapiens, UniProt Q05397); conditions: PTK2; screened at 3000 nM
T13 construct: purchased DiscoverX; host or cells: E. coli (BL21-derived, T7 phage display) or HEK-293
Experimental: as §1

[14] = target: T14, panel of ninety-seven kinases (Homo sapiens, UniProt Q06187); conditions: BTK; screened at 3000 nM
T14 construct: purchased DiscoverX; host or cells: E. coli (BL21-derived, T7 phage display) or HEK-293
Experimental: as §1

[15] = target: T15, panel of ninety-seven kinases (Homo sapiens, UniProt Q15759); conditions: MAPK11; screened at 3000 nM
T15 construct: purchased DiscoverX; host or cells: E. coli (BL21-derived, T7 phage display) or HEK-293
Experimental: as §1

[16] = target: T16, panel of ninety-seven kinases (Homo sapiens, UniProt Q15831); conditions: STK11; screened at 3000 nM
T16 construct: purchased DiscoverX; host or cells: E. coli (BL21-derived, T7 phage display) or HEK-293
T16 sequence (Q15831 whole entry): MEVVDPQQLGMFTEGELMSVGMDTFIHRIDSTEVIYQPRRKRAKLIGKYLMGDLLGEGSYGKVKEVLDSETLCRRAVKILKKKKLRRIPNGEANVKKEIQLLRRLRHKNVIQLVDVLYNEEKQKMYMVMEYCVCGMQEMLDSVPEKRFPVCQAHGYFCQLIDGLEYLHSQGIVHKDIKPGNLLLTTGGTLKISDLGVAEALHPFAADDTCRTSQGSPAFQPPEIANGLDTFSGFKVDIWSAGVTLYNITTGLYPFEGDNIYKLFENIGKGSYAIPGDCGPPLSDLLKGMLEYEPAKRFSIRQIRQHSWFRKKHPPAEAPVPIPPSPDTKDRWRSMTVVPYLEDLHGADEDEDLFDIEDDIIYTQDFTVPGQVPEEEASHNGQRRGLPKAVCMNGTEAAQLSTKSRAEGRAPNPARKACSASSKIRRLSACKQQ
Experimental: as §1

[17] = target: T17, panel of ninety-seven kinases (Homo sapiens, UniProt Q86UX6); conditions: STK32C; screened at 3000 nM
T17 construct: purchased DiscoverX; host or cells: E. coli (BL21-derived, T7 phage display) or HEK-293
T17 sequence (Q86UX6 whole entry): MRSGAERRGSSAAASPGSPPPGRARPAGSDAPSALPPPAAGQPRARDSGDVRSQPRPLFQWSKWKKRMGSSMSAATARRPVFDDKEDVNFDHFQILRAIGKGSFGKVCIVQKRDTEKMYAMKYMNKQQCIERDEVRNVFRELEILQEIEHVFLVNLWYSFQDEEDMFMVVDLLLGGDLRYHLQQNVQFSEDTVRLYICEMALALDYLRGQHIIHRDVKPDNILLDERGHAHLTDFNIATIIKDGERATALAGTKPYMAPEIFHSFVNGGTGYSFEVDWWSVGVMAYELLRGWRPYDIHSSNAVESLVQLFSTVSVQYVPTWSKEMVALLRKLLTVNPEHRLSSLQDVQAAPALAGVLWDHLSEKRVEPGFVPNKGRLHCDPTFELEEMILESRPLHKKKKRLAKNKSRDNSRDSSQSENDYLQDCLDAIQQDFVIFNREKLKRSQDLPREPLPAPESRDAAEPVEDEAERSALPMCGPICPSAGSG
Experimental: as §1

[18] = target: T18, panel of ninety-seven kinases (Homo sapiens, UniProt Q86V86); conditions: PIM3; screened at 3000 nM
T18 construct: purchased DiscoverX; host or cells: E. coli (BL21-derived, T7 phage display) or HEK-293
Experimental: as §1

[19] = target: T19, panel of ninety-seven kinases (Homo sapiens, UniProt Q8IYT8); conditions: ULK2; screened at 3000 nM
T19 construct: purchased DiscoverX; host or cells: E. coli (BL21-derived, T7 phage display) or HEK-293
Experimental: as §1

[20] = target: T20, panel of ninety-seven kinases (Homo sapiens, UniProt Q9BUB5); conditions: MKNK1; screened at 3000 nM
T20 construct: purchased DiscoverX; host or cells: E. coli (BL21-derived, T7 phage display) or HEK-293
Experimental: as §1

[21] = target: T21, panel of ninety-seven kinases (Homo sapiens, UniProt Q9BXA7); conditions: TSSK1B; screened at 3000 nM
T21 construct: purchased DiscoverX; host or cells: E. coli (BL21-derived, T7 phage display) or HEK-293
Experimental: as §1

[22] = test system: panel of ninety-seven kinases; conditions: for % Ctrl @ 3 μM: screened at 3000 nM
Experimental: as §1

% Ctrl @ 3 μM [1]: 100 % Ctrl | % Ctrl @ 3 μM [2]: 80 % Ctrl | % Ctrl @ 3 μM [3]: 88 % Ctrl | % Ctrl @ 3 μM [4]: 100 % Ctrl | % Ctrl @ 3 μM [5]: 100 % Ctrl | % Ctrl @ 3 μM [6]: 93 % Ctrl | % Ctrl @ 3 μM [7]: 100 % Ctrl | % Ctrl @ 3 μM [8]: 95 % Ctrl | % Ctrl @ 3 μM [9]: 100 % Ctrl | % Ctrl @ 3 μM [10]: 92 % Ctrl | % Ctrl @ 3 μM [11]: 77 % Ctrl | % Ctrl @ 3 μM [12]: 88 % Ctrl | % Ctrl @ 3 μM [13]: 98 % Ctrl | % Ctrl @ 3 μM [14]: 94 % Ctrl | % Ctrl @ 3 μM [15]: 99 % Ctrl | % Ctrl @ 3 μM [16]: 81 % Ctrl | % Ctrl @ 3 μM [17]: 100 % Ctrl | % Ctrl @ 3 μM [18]: 98 % Ctrl | % Ctrl @ 3 μM [19]: 93 % Ctrl | % Ctrl @ 3 μM [20]: 92 % Ctrl | % Ctrl @ 3 μM [21]: 100 % Ctrl | binding activity against panel kinases (% Ctrl) ([22]; 3 μM (3000 nM), ninety-seven kinases): poor or non-existent binding activity | % Ctrl @ 3 μM ([22]; EGFR): 100 % Ctrl | % Ctrl @ 3 μM ([22]; KIT): 100 % Ctrl
SMILES: CN(C)CCNC(=O)c1ccc(-c2ccc(-c3ccc(Cl)cc3)n2-c2ccccc2C(F)(F)F)cc1 (single isomer, unassigned) [Atropisomer A-2]

— US12637424B2, “Pharmaceutical salt of an arylpyrrole derivative” (SENTINEL ONCOLOGY LIMITED, priority 2020, dated 2026)
